# Results taken from US20250034116A1, “1,4-DIHETEROCYCLIC SUBSTITUTED AROMATIC RING OR AROMATIC HETEROCYCLIC COMPOUND AND USE THEREOF” (BeBetter Med Inc., priority 2022, published 2025).
# Tests used:
# [1] = tested on: CYP enzymes in rat liver microsomes (RLM); assay: Inhibition of 20-HETE production in rat liver microsomes (RLM); format: biochemical
# Experimental: (§1) Experimental principle: The inhibitory activity of 20-HETE production is evaluated by testing the inhibitory effects of the compound on human liver microsomes (HLM), rat liver microsomes (RLM), mouse liver microsomes (MLM), or […] CYP4 subtype enzymes (CYP4F2). This assay employs HLM, RLM, or MLM along with recombinant CYP4F2 (rCYP4F2) and recombinant CYP4A11 (rCYP4A11), which are […] CYP4 subtype enzymes, to detect the effects of the test compound at different concentrations on the metabolic rate of enzyme-specific substrates, to determine the inhibitory effects of the test compound on CYP enzymes in HLM, RLM, or MLM.
# (§2) Experimental methods: Dissolve the test compound in DMSO, and subsequently dilute it with an acetonitrile and DMSO mixture (3:1). Add 2 μl of varying concentrations of the test compound and 100 μl of potassium phosphate buffer containing either liver microsomes or recombinant enzymes to a 96-well plate. After mixing well, transfer 30 μl to another well (in duplicate), add 15 μl of 400 μM substrate solution, and mix well again. Preheat at 37° C. for 10 minutes, and then add 15 μl of 6 mM NADPH and incubate at 37° C. for 25 minutes. After 25 minutes, add 160 μl of acetonitrile solution (containing 0.1 μg/ml internal standard) to stop the reaction. Mix well, centrifuge at 3500 g for 15 minutes, and then analyze the supernatant using LC-MS/MS.
# (§3) Plot the compound concentration on the x-axis and the inhibition rate on the y-axis to draw the curve. Use GraphPad Prism 5 software to fit the curve and calculate the IC50. The formula is Y=Bottom+(Top−Bottom)/(1+10^((Log IC50−X)×HillSlope)). X represents the logarithmic concentration of the inhibitor, and Y represents the relative enzyme activity at a given inhibitor concentration (relative to the condition without the inhibitor).
# (§4) Calculate the inhibition percentages at concentrations of 1000 nM, 500 nM, or 100 nM as well as the half-maximal inhibitory concentration (IC50) of the test compound from the above experiment.
# [2] = tested on: CYP enzymes in human liver microsomes (HLM); assay: Inhibition of 20-HETE production in human liver microsomes (HLM); format: biochemical
# Experimental: as §1, §2, §3, §4
Compound,RLM (% inh @ 500 nM) [1],HLM (% inh @ 500 nM) [2],IC50 [2],IC50 [1]
"O=C(NC1CCN(c2ccc(-c3cn[nH]c3)cc2)CC1)C1CCCC1 [Compound 69, N-(1-(4-(1H-pyrazol-4-yl)phenyl)piperidin-4-yl)cyclopentanecarboxamide]",43.82%,76.97%,–,–
"O=C1CCCN1C1CCN(c2ccc(-c3cn[nH]c3)cc2)CC1 [Compound 73, 1-(1-(4-(1H-pyrazol-4-yl)phenyl)piperidin-4-yl) pyrrolidin-2-one]",29.56%,65.78%,–,–
"O=C1CCCN1CC1CCN(c2ccc(-c3cc[nH]n3)cc2F)CC1 [Compound 76, 1-((1-(2-fluoro-4-(1H-pyrazol-3-yl)phenyl)piperidin-4-yl)methyl)pyrrolidin-2-one]",40.73%,80.70%,–,–
"O=C1CCCN1CC1CCN(c2ccc(-c3cc[nH]n3)c(F)c2F)CC1 [Compound 77, 1-((1-(2,3-difluoro-4-(1H-pyrazol-3-yl)phenyl)piperidin-4-yl)methyl)pyrrolidin-2-one]",62.98%,86.12%,–,–
"O=C(N1CCCCC1)N1CCN(c2ccc(-c3cn[nH]c3)c(F)c2F)CC1 [Compound 88, (4-(2,3-difluoro-4-(1H-pyrazol-4-yl)phenyl)piperazin-1-yl)(piperidin-1-yl) methanone]",68.94%,78.05%,–,–
"O=C(NC1CCCC1)N1CCN(c2ccc(-c3cn[nH]c3)c(F)c2F)CC1 [Compound 89, N-cyclopentyl-4-(2,3-difluoro-4-(1H-pyrazol-4-yl)phenyl)piperazine-1-carboxamide]",55.76%,94.11%,–,–
"O=C(NCC1CCCC1)N1CCN(c2ccc(-c3cn[nH]c3)c(F)c2F)CC1 [Compound 92, N-(cyclopentylmethyl)-4-(2,3-difluoro-4-(1H-pyrazol-4-yl)phenyl)piperazine-1-carboxamide]",77.48%,94.83%,26.4 nM,–
"O=C(NCc1ccccc1)N1CCN(c2ccc(-c3cn[nH]c3)c(F)c2F)CC1 [Compound 94, N-benzyl-4-(2,3-difluoro-4-(1H-pyrazol-4-yl)phenyl)piperazine-1-carboxamide]",73.06%,92.79%,–,148 nM
"O=C(NCc1ccccc1)C1CCN(c2ccc(-c3cn[nH]c3)c(F)c2F)CC1 [Compound 95, N-benzyl-1-(2,3-difluoro-4-(1H-pyrazol-4-yl)phenyl)piperidine-4-carboxamide]",61.73%,94.96%,19.4 nM,341 nM
"O=C(C1CCCCC1)N1CCC(c2ccc(-c3cn[nH]c3)c(F)c2F)CC1 [Compound 97, cyclohexyl(4-(2,3-difluoro-4-(1H-pyrazol-4-yl)phenyl)piperidin-1-yl) methanone]",–,95.80%,25.6 nM,25.4 nM
"O=C(C1CCCC1)N1CCC(c2c(F)cc(-c3cn[nH]c3)cc2F)CC1 [Compound 99, cyclopentyl(4-(2,6-difluoro-4-(1H-pyrazol-4-yl)phenyl)piperidin-1-yl) methanone]",74.05%,96.13%,–,–
"O=C(C1CCC(F)(F)CC1)N1CCC(c2ccc(-c3cn[nH]c3)c(F)c2F)CC1 [Compound 101, (4-(2,3-difluoro-4-(1H-pyrazol-4-yl)phenyl)piperidin-1-yl)(4,4-difluorocyclohexyl) methanone]",69.34%,78.37%,–,–
"C[C@H]1CN(C(=O)N2CCCC2)CCN1c1ccc(-c2cn[nH]c2)c(F)c1F [Compound 102, (S)-(4-(2,3-difluoro-4-(1H-pyrazol-4-yl)phenyl)-3-methylpiperazin-1-yl)(pyrrolidin-1-yl) methanone]",76.10%,84.23%,–,–
"C[C@@H]1CN(C(=O)N2CCCC2)CCN1c1ccc(-c2cn[nH]c2)c(F)c1F [Compound 104, (R)-(4-(2,3-difluoro-4-(1H-pyrazol-4-yl)phenyl)-3-methylpiperazin-1-yl)(pyrrolidin-1-yl) methanone]",73.19%,78.18%,–,–
"O=C1CCCCC1C(=O)N1CCC(c2ccc(-c3cn[nH]c3)c(F)c2F)CC1 (centres unmarked) [Compound 109, 2-(4-(2,3-difluoro-4-(1H-pyrazol-4-yl)phenyl)piperidine-1-carbonyl)cyclohexane-1-one]",68.22%,74.67%,–,–
"O=C(Cc1ccccc1)N1CCC(c2ccc(-c3cn[nH]c3)c(F)c2F)CC1 [Compound 111, 1-(4-(2,3-difluoro-4-(1H-pyrazol-4-yl)phenyl)piperidin-1-yl)-2-phenylethan-1-one]",84.99%,82.17%,–,–
"CCCCCC1CCC(C(=O)N2CCC(c3ccc(-c4cn[nH]c4)c(F)c3F)CC2)CC1 (centres unmarked) [Compound 112, (4-(2,3-difluoro-4-(1H-pyrazol-4-yl)phenyl)piperidin-1-yl)((1s,4r)-4-pentylcyclohexyl) methanone]",71.58%,70.73%,–,–
"C#CCCCCCC(=O)NCC1CCN(c2ccc(-c3cn[nH]c3)cc2)CC1 [Compound 114, N-((1-(4-(1H-pyrazol-4-yl)phenyl)piperidin-4-yl)methyl)oct-7-ynamide]",54.89%,85.59%,–,–
"C=CCCCCCC(=O)NCC1CCN(c2ccc(-c3cn[nH]c3)cc2)CC1 [Compound 115, N-((1-(4-(1H-pyrazol-4-yl)phenyl)piperidin-4-yl)methyl)oct-7-enamide]",–,85.21%,20.8 nM,26.2 nM
"O=S(=O)(C1CCCCC1)N1CCC(c2ccc(-c3cn[nH]c3)cc2F)CC1 [Compound 119, 1-(cyclohexylsulfonyl)-4-(2-fluoro-4-(1H-pyrazol-4-yl)phenyl)piperidine]",75.79%,87.83%,–,116 nM
"O=S(=O)(c1ccc(F)cc1)N1CCC(c2ccc(-c3cn[nH]c3)cc2F)CC1 [Compound 120, 4-(2-fluoro-4-(1H-pyrazol-4-yl)phenyl)-1-((4-fluorophenyl)sulfonyl)piperidine]",71.20%,93.40%,16.1 nM,107 nM
"O=C1CCCN1CC1C2CN(c3ccc(-c4cn[nH]c4)cc3)CC12 (centres unmarked) [Compound 125, 1-((3-(4-(1H-pyrazol-4-yl)phenyl)-3-azabicyclo[3.1.0]hexan-6-yl)methyl)pyrrolidin-2-one]",34.82%,94.93%,–,–
"O=C(N1CCCC1)N1CC2CCC(C1)N2c1ccc(-c2cn[nH]c2)c(F)c1F [Compound 128, (8-(2,3-difluoro-4-(1H-pyrazol-4-yl)phenyl)-3,8-diazabicyclo[3.2.1]octan-3-yl)(pyrrolidin-1-yl) methanone]",62.11%,89.99%,–,–
"O=C(N1CCCC1)N1CCN(c2ccc(-c3cn[nH]c3)cc2F)CC1 [Compound 129, (4-(2-fluoro-4-(1H-pyrazol-4-yl)phenyl)piperazin-1-yl)(pyrrolidin-1-yl) methanone]",74.89%,89.94%,–,–
"O=C(C1CCCC1)N1CCC(c2ccc(-c3cn[nH]c3)cc2F)CC1 [Compound 138, cyclopentyl(4-(2-fluoro-4-(1H-pyrazol-4-yl)phenyl)piperidin-1-yl) methanone]",77.16%,92.84%,–,–
